The results in this text go back to patent publication US9029337B2, “Modulation of factor 7 expression” (Isis Pharmaceuticals, Inc., priority 2007, dated 2015).

What is called % Inhibition is the change of the read-out against control, counted positive when it falls. Read a low % Inhibition as a weak effect.

Strand notation (5' to 3'): a small letter for the sugar, then the base; units joined by * are phosphorothioate-linked, units joined directly phosphodiester-linked; [ ] holds rarer units or linkages, { } end groups; capitals alone tell only the bases. e = 2'-O-(2-methoxyethyl) (MOE); [5mC] = 5-methylcytosine; d = 2'-deoxy (DNA)

For the data set, the system named is human Factor 7 mRNA. Description: Antisense inhibition of human Factor 7 with short (14-mer) oligonucleotides in HepB3 cells, electroporation 1,000 nM. Type of data set: cell-based. The conditions noted are these: electroporation, 1,000 nM antisense oligonucleotide, approximately 24 hours, Factor 7 mRNA relative to untreated control cells. From the text: Short antisense oligonucleotides (shortmers) were designed to target a Factor 7 nucleic acid. The shortmers in Table 17 were designed as 2-10-2 MOE gapmers. The gapmers are 14 nucleotides in length, wherein the central gap segment is comprised of 10 2′-deoxynucleotides and is flanked on both sides (in the 5′ and 3′ directions) by wings comprising 2 nucleotides each. Each nucleotide in the 5′ wing segment and each nucleotide in the 3′ wing segment has a 2′-MOE modification. The internucleoside linkages throughout each gapmer are phosphorothioate (P═S) linkages. All cytidine residues throughout each gapmer are 5-methylcytidines.
Shortmers were evaluated for their ability to reduce human Factor 7 mRNA in HepB3 cells and compared with one 5-10-5 chimeric oligonucleotide from Table 16, ISIS 407939. HepB3 cells at a density of 20,000 cells per well in a 96-well plate were transfected using electroporation with 1,000 nM of antisense oligonucleotide. After a treatment period of approximately 24 hours, RNA was isolated from the cells and Factor 7 mRNA levels were measured by real-time RT-PCR, as described herein. Factor 7 mRNA levels were adjusted according to total RNA content as measured by RIBOGREEN®. Results are presented in Table 17 as percent inhibition of Factor 7 mRNA, relative to untreated control cells. ISIS 407939 is the first oligonucleotide in Table 17 to which the shortmers were compared, and is marked by an asterisk (*).
As for “435672 (antisense eA*e[5mC]*d[5mC]*d[5mC]*dA*dG*dA*dT*dG*dG*dT*dG*eT*eT) [compound 435672]”, the “% Inhibition” value was determined as 12%. In the case of “435673 (antisense eA*eG*dA*d[5mC]*d[5mC]*dA*d[5mC]*d[5mC]*d[5mC]*dA*dG*dA*eT*eG) [compound 435673]” it was 34%; in that of “435674 (antisense eA*eA*dA*d[5mC]*dA*dG*dT*dG*dG*dG*d[5mC]*d[5mC]*eG*e[5mC]) [compound 435674]”, 34%; in that of “435675 (antisense eT*eG*dT*d[5mC]*dG*dA*dA*dA*d[5mC]*dA*dG*dT*eG*eG) [compound 435675]”, 24%. In the case of “435676 (antisense eG*eA*dT*dT*dT*dT*dG*dT*d[5mC]*dG*dA*dA*eA*e[5mC]) [compound 435676]”, the “% Inhibition” value is listed as 11%.

Turning to “435677 (antisense eG*eT*dG*d[5mC]*dT*d[5mC]*dG*d[5mC]*d[5mC]*d[5mC]*dA*dG*e[5mC]*eA) [compound 435677]”, the “% Inhibition” value is 60%. In the case of “435678 (antisense eA*eG*dG*dT*d[5mC]*dG*dT*dG*d[5mC]*dT*d[5mC]*dG*e[5mC]*e[5mC]) [compound 435678]” it was 67%; in that of “435679 (antisense e[5mC]*eG*d[5mC]*dT*dG*dA*dG*dG*dT*d[5mC]*dG*dT*eG*e[5mC]) [compound 435679]”, 62%; in that of “435680 (antisense eG*eT*dG*d[5mC]*dT*d[5mC]*dG*d[5mC]*dT*dG*dA*dG*eG*eT) [compound 435680]”, 52%. As to “435681 (antisense eA*eT*dG*dA*d[5mC]*d[5mC]*dT*dG*d[5mC]*dG*d[5mC]*d[5mC]*eA*e[5mC]) [compound 435681]”, the “% Inhibition” value was 40%. In the case of “435682 (antisense eG*eG*dA*dT*dG*dA*dT*dG*dA*d[5mC]*d[5mC]*dT*eG*e[5mC]) [compound 435682]” it was 36%; in that of “435683 (antisense eA*eT*dG*dT*d[5mC]*dG*dT*dG*dG*dT*dT*dG*eG*eT) [compound 435683]”, 3%; in that of “435684 (antisense eA*eG*d[5mC]*dA*dG*d[5mC]*dG*d[5mC]*dG*dA*dT*dG*eT*e[5mC]) [compound 435684]”, 56%. Consider “435685 (antisense eA*eG*dG*dA*d[5mC]*d[5mC]*dA*d[5mC]*dG*dG*dG*d[5mC]*eT*eG) [compound 435685]”, for which the “% Inhibition” value was 40%. Turning to “435686 (antisense e[5mC]*eA*dG*dT*dG*dA*dG*dG*dA*d[5mC]*d[5mC]*dA*e[5mC]*eG) [compound 435686]”, the “% Inhibition” value came out at 31%. Take “435687 (antisense eA*eT*dG*dG*dT*d[5mC]*dA*dG*dT*dG*dA*dG*eG*eA) [compound 435687]”: the “% Inhibition” value amounted to 7%. As for “435688 (antisense eA*e[5mC]*d[5mC]*dA*d[5mC]*dA*dT*dG*dG*dT*d[5mC]*dA*eG*eT) [compound 435688]”, the “% Inhibition” value was 0%. As for “435689 (antisense eT*eT*d[5mC]*dG*dG*dG*d[5mC]*dA*dG*dG*d[5mC]*dA*eG*eA) [compound 435689]”, the “% Inhibition” value is on record as 23%. “435690 (antisense eG*eT*d[5mC]*d[5mC]*dG*dT*dT*d[5mC]*dG*dG*dG*d[5mC]*eA*eG) [compound 435690]”: the “% Inhibition” value amounted to 55%. “435691 (antisense e[5mC]*eA*dG*d[5mC]*d[5mC]*dG*d[5mC]*dT*dG*dA*d[5mC]*d[5mC]*eA*eA) [compound 435691]”: the “% Inhibition” value came out at 25%. As to “435692 (antisense e[5mC]*eG*dG*dT*d[5mC]*d[5mC]*dA*dG*d[5mC]*dA*dG*d[5mC]*eT*eG) [compound 435692]”, the “% Inhibition” value was 32%.

“435693 (antisense eG*eG*d[5mC]*dA*dG*dT*d[5mC]*d[5mC]*dT*dG*dG*dG*eT*e[5mC]) [compound 435693]”: the “% Inhibition” value came to 43%. On to “435694 (antisense e[5mC]*eT*dG*d[5mC]*dA*dG*dG*d[5mC]*dA*dG*dT*d[5mC]*e[5mC]*eT) [compound 435694]”, for which the “% Inhibition” value is 39%. In the case of “435695 (antisense eG*eA*d[5mC]*dT*dG*d[5mC]*dT*dG*d[5mC]*dA*dG*dG*e[5mC]*eA) [compound 435695]” it was 48%; in that of “435696 (antisense e[5mC]*eA*dG*dA*dA*d[5mC]*dA*dT*dG*dT*dA*d[5mC]*eT*e[5mC]) [compound 435696]”, 10%; in that of “435697 (antisense eA*eG*dT*dA*dG*d[5mC]*d[5mC]*dG*dG*d[5mC]*dA*d[5mC]*eA*eG) [compound 435697]”, 53%. For the substance “435698 (antisense e[5mC]*e[5mC]*dT*dT*dG*d[5mC]*dA*dG*dG*dA*dG*dT*e[5mC]*e[5mC]) [compound 435698]”, the “% Inhibition” value amounted to 61%. As for “435699 (antisense eG*e[5mC]*d[5mC]*d[5mC]*d[5mC]*dA*dG*d[5mC]*dT*dG*dA*d[5mC]*eG*eA) [compound 435699]”, the “% Inhibition” value turned out to be 48%. As for “435714 (antisense eA*e[5mC]*dT*d[5mC]*dG*dA*dT*dG*dT*dA*d[5mC]*dT*eG*eG) [compound 435714]”, the figure is 3%; as for “435715 (antisense e[5mC]*eA*dG*d[5mC]*d[5mC]*dA*d[5mC]*dT*d[5mC]*dG*dA*dT*eG*eT) [compound 435715]”, 35%.

Regarding “435716 (antisense eT*eT*dT*dT*dG*d[5mC]*dA*dG*d[5mC]*d[5mC]*dA*d[5mC]*eT*e[5mC]) [compound 435716]”, the “% Inhibition” value came to 22%. With “435717 (antisense eT*eG*dA*dG*d[5mC]*dT*dT*dT*dT*dG*d[5mC]*dA*eG*e[5mC]) [compound 435717]”, the “% Inhibition” value was 0%. In the case of “435718 (antisense eG*e[5mC]*dT*d[5mC]*dG*d[5mC]*dA*dG*dG*dA*dG*dG*eA*e[5mC]) [compound 435718]” it was 26%; in that of “435719 (antisense e[5mC]*eA*dG*d[5mC]*d[5mC]*dT*dT*dG*dG*d[5mC]*dT*dT*eT*e[5mC]) [compound 435719]”, 50%; in that of “435720 (antisense eA*eG*dG*d[5mC]*dT*d[5mC]*dA*dG*d[5mC]*dT*dG*dG*eG*e[5mC]) [compound 435720]”, 16%. Regarding “435721 (antisense eT*eA*dA*dG*dG*dA*dG*dG*d[5mC]*dT*d[5mC]*dA*eG*e[5mC]) [compound 435721]”, the “% Inhibition” value amounted to 12%. In the case of “435722 (antisense eT*eG*dG*dG*d[5mC]*dT*dT*dG*dG*d[5mC]*dT*dG*eA*eA) [compound 435722]” it was 50%; in that of “435723 (antisense eG*e[5mC]*d[5mC]*dA*dG*d[5mC]*dA*dG*dA*dT*d[5mC]*dA*e[5mC]*eG) [compound 435723]”, 68%.

On to “435724 (antisense e[5mC]*eT*dG*dA*dG*dG*d[5mC]*d[5mC]*dA*dG*d[5mC]*dA*eG*eA) [compound 435724]”, for which the “% Inhibition” value came out at 52%.

For “435725 (antisense eG*e[5mC]*dA*dG*d[5mC]*d[5mC]*dT*dG*dA*dG*dG*d[5mC]*e[5mC]*eA) [compound 435725]”, the “% Inhibition” value came to 79%.

For the substance “435726 (antisense eG*e[5mC]*dA*dA*dT*dG*dA*dA*dG*dG*d[5mC]*dA*eG*eA) [compound 435726]”, the “% Inhibition” value is recorded as 26%. As for “435727 (antisense eT*eG*dG*dA*dG*dT*d[5mC]*dA*dG*d[5mC]*dA*dT*e[5mC]*eG) [compound 435727]”, the figure is 73%. In the case of “435728 (antisense eA*e[5mC]*dA*d[5mC]*dA*dT*dG*dG*dA*dG*dT*d[5mC]*eA*eG) [compound 435728]”, the “% Inhibition” value is 16%. For the substance “435729 (antisense eA*e[5mC]*dA*dG*d[5mC]*dA*d[5mC]*dA*d[5mC]*dA*dT*dG*eG*eA) [compound 435729]”, the “% Inhibition” value turned out to be 30%. For “435730 (antisense eT*eA*dA*dA*d[5mC]*dA*dA*d[5mC]*d[5mC]*dG*d[5mC]*d[5mC]*eT*eT) [compound 435730]”, the “% Inhibition” value was 49%. Take “435731 (antisense eG*eT*dG*dA*dG*dA*dG*d[5mC]*dT*dA*dA*dA*e[5mC]*eA) [compound 435731]”: the “% Inhibition” value was determined as 11%. In the case of “435732 (antisense eG*eA*dA*dA*dA*dG*dT*dG*dA*dG*dA*dG*e[5mC]*eT) [compound 435732]”, the “% Inhibition” value amounted to 0%. “435733 (antisense e[5mC]*eT*dG*dA*dA*dT*dT*dG*dT*d[5mC]*dT*dG*eA*eA) [compound 435733]”: the “% Inhibition” value stood at 5%. With “435734 (antisense eA*eT*dG*d[5mC]*dT*dT*d[5mC]*dT*dG*dA*dA*dT*eT*eG) [compound 435734]”, the “% Inhibition” value turned out to be 16%. With “435735 (antisense eT*eG*dG*dT*dG*dA*dT*dG*d[5mC]*dT*dT*d[5mC]*eT*eG) [compound 435735]”, the “% Inhibition” value amounted to 81%. On to “435736 (antisense eA*eT*dG*d[5mC]*dA*dT*dG*dG*dT*dG*dA*dT*eG*e[5mC]) [compound 435736]”, for which the “% Inhibition” value is recorded as 50%.
